{
  "source": "patent US20040186179A1",
  "about": "“Pharmaceutical composition” (priority 2000, published 2004)",
  "key": {"[1]": {"test": "Pharmacokinetics in osteoarthritis patients, plasma concentrations by LC/MS", "format": "in vivo, human", "conditions": "for Tmax / Cmax / AUC(0-t) / AUC: plasma; for AUC(0-t): read-out: AUC0-6", "procedure": "(§1) A four week multicenter randomized double-blind double-dummy placebo-controlled parallel group trial (the study) of four dosing regimens of 5-methyl-2-(2′-chloro-6′-fluoroanilino)phenylacetic acid in patients with knee or hip primary osteoarthritis is performed, using diclofenac as a comparator. Patients are male and female, from 18 to 75 years of age, have a clinical and radiological diagnosis of knee or hip osteoarthritis as defined by the American College of Rheumatology criteria, and have a pain intensity of at least 40 mm (Visual Analog Scale) in the affected joint prior to screening for inclusion in the study. 584 patients are randomized to receive either 50, 100, or 200 mg 5-methyl-2-(2′-chloro-6′-fluoroanilino)phenylacetic acid or 75 mg diclofenac administered orally twice a day, or 400 mg 5-methyl-2-(2′-chloro-6′-fluoroanilino)phenylacetic acid administered orally once a day, or placebo. Drug and placebo are administered in capsules. The comparator, diclofenac, is an extended release tablet that is over-encapsulated to match the placebo. The treatment duration is for 28 days.\n(§2) Pharmacokinetics are performed on 52 of the patients who receive 5-methyl-2-(2′-chloro-6′-fluoroanilino)phenylacetic acid. Blood samples are taken at 0, 0.5, 1, 2, 3, 4 and 6 hours following administration of 5-methyl-2-(2′-chloro-6′-fluoroanilino)phenylacetic acid. Plasma concentrations of 5-methyl-2-(2′-chloro-6′-fluoroanilino)phenylacetic acid are measured by an LC/MS assay with a limit of quantitation of 10 ng/ml. Cmax and tmax AUC (0-6) are determined for day 1 and Cmax^ss and tmax^ss AUCτ^ss, Cmin^ss, Cav^ss, peak-trough fluctuation (PTF) and Cl/F at steady state are determined on day 28. The primary efficacy parameter is the most pain experienced over the previous 24 hours on a 100 mm VAS."}, "[2]": {"tested_on": "patients with knee or hip primary osteoarthritis", "test": "Four week placebo-controlled trial, most pain over the previous 24 hours on a 100 mm VAS", "format": "in vivo, human", "procedure": "as §1, §2"}, "[3]": {"conditions": "both sexes, human, po, 50 mg, 50 mg bid oral, day 0"}, "[4]": {"conditions": "both sexes, human, po, 50 mg, 50 mg bid oral, day 28"}, "[5]": {"conditions": "both sexes, human, po, 100 mg, 100 mg bid oral, day 0"}, "[6]": {"conditions": "both sexes, human, po, 100 mg, 100 mg bid oral, day 28"}, "[7]": {"conditions": "both sexes, human, po, 200 mg, 200 mg bid oral, day 0"}, "[8]": {"conditions": "both sexes, human, po, 200 mg, 200 mg bid oral, day 28"}, "[9]": {"conditions": "both sexes, human, po, 400 mg, 400 mg qd oral, day 0"}, "[10]": {"conditions": "both sexes, human, po, 400 mg, 400 mg qd oral, day 28"}},
  "note": "Read-outs that look alike come from different tables or passages of the source. Marks after values point to notes of the source that are not given here.",
  "data": [
    {"smiles": "Cc1ccc(Nc2c(F)cccc2Cl)c(CC(=O)O)c1", "note": "[5-methyl-2-(2′-chloro-6′-fluoroanilino)phenylacetic acid]", "values": [
      {"measurement": "CLss/F", "setting": "[1]; 50 mg bid oral, day 28", "value": "15.0 ± 4.7", "unit": "L/h"},
      {"measurement": "CLss/F", "setting": "[1]; 100 mg bid oral, day 28", "value": "13.3 ± 3.3", "unit": "L/h"},
      {"measurement": "CLss/F", "setting": "[1]; 200 mg bid oral, day 28", "value": "15.0 ± 3.5", "unit": "L/h"},
      {"measurement": "CLss/F", "setting": "[1]; 400 mg qd oral, day 28", "value": "17.4 ± 6.1", "unit": "L/h"},
      {"measurement": "Dose dependence of AUC and Cmax", "setting": "[1]; 50, 100, 200 mg twice daily and 400 mg once daily, day 28", "value": "dose proportional increase"},
      {"measurement": "Tmax", "setting": "[1]; both sexes, human, oral, all dose groups, read-out: tmax, typical", "value": "2 to 3", "unit": "h"},
      {"measurement": "Cmax", "setting": "[1]; [3]", "value": "914 ± 340", "unit": "ng/mL"},
      {"measurement": "AUC(0-t)", "setting": "[1]; [3]", "value": "2680 ± 960", "unit": "ng·h/mL"},
      {"measurement": "Tmax", "setting": "[1]; both sexes, human, po, 50 mg, 50 mg bid oral, day 0, read-out: tmax", "value": 2, "unit": "h"},
      {"measurement": "Cmax", "setting": "[1]; [4]", "value": "1010 ± 590", "unit": "ng/mL"},
      {"measurement": "AUC(0-t)", "setting": "[1]; [4]", "value": "2810 ± 1210", "unit": "ng·h/mL"},
      {"measurement": "Tmax", "setting": "[1]; both sexes, human, po, 50 mg, 50 mg bid oral, day 28, read-out: tmax", "value": 2, "unit": "h"},
      {"measurement": "Cmax", "setting": "[1]; [5]", "value": "1790 ± 600", "unit": "ng/mL"},
      {"measurement": "AUC(0-t)", "setting": "[1]; [5]", "value": "5220 ± 1810", "unit": "ng·h/mL"},
      {"measurement": "Tmax", "setting": "[1]; both sexes, human, po, 100 mg, 100 mg bid oral, day 0, read-out: tmax", "value": 2.5, "unit": "h"},
      {"measurement": "Cmax", "setting": "[1]; [6]", "value": "1860 ± 630", "unit": "ng/mL"},
      {"measurement": "AUC(0-t)", "setting": "[1]; [6]", "value": "6010 ± 1890", "unit": "ng·h/mL"},
      {"measurement": "Tmax", "setting": "[1]; both sexes, human, po, 100 mg, 100 mg bid oral, day 28, read-out: tmax", "value": 2, "unit": "h"},
      {"measurement": "Cmax", "setting": "[1]; [7]", "value": "4210 ± 2160", "unit": "ng/mL"},
      {"measurement": "AUC(0-t)", "setting": "[1]; [7]", "value": "11700 ± 3570", "unit": "ng·h/mL"},
      {"measurement": "Tmax", "setting": "[1]; both sexes, human, po, 200 mg, 200 mg bid oral, day 0, read-out: tmax", "value": 3, "unit": "h"},
      {"measurement": "Cmax", "setting": "[1]; [8]", "value": "4380 ± 3100", "unit": "ng/mL"},
      {"measurement": "AUC(0-t)", "setting": "[1]; [8]", "value": "11100 ± 3020", "unit": "ng·h/mL"},
      {"measurement": "Tmax", "setting": "[1]; both sexes, human, po, 200 mg, 200 mg bid oral, day 28, read-out: tmax", "value": 2, "unit": "h"},
      {"measurement": "Cmax", "setting": "[1]; [9]", "value": "5540 ± 1800", "unit": "ng/mL"},
      {"measurement": "AUC(0-t)", "setting": "[1]; [9]", "value": "17200 ± 5280", "unit": "ng·h/mL"},
      {"measurement": "Tmax", "setting": "[1]; both sexes, human, po, 400 mg, 400 mg qd oral, day 0, read-out: tmax", "value": 3, "unit": "h"},
      {"measurement": "Cmax", "setting": "[1]; [10]", "value": "4790 ± 2640", "unit": "ng/mL"},
      {"measurement": "AUC(0-t)", "setting": "[1]; [10]", "value": "15300 ± 5590", "unit": "ng·h/mL"},
      {"measurement": "Tmax", "setting": "[1]; both sexes, human, po, 400 mg, 400 mg qd oral, day 28, read-out: tmax", "value": 2, "unit": "h"},
      {"measurement": "AUC", "setting": "[1]; both sexes, human, 50 mg bid oral, day 28", "value": "3660 ± 1290", "unit": "ng·h/mL"},
      {"measurement": "AUC", "setting": "[1]; both sexes, human, 100 mg bid oral, day 28", "value": "8100 ± 2730", "unit": "ng·h/mL"},
      {"measurement": "AUC", "setting": "[1]; both sexes, human, 200 mg bid oral, day 28", "value": "14000 ± 3220", "unit": "ng·h/mL"},
      {"measurement": "AUC", "setting": "[1]; both sexes, human, 400 mg qd oral, day 28", "value": "25800 ± 9200", "unit": "ng·h/mL"},
      {"measurement": "half-life", "setting": "[1]; both sexes, human, blood plasma, oral administration", "value": "3 to 6", "unit": "h"},
      {"measurement": "VAS pain, change from baseline", "setting": "[2]; 50 mg bid, day 7, 100 mm VAS", "value": "−19.5 (19.1)* mm"},
      {"measurement": "VAS pain, change from baseline", "setting": "[2]; 50 mg bid, day 14, 100 mm VAS", "value": "−22.6 (20.9)* mm"},
      {"measurement": "VAS pain, change from baseline", "setting": "[2]; 50 mg bid, day 28, 100 mm VAS", "value": "−28.6", "unit": "mm"},
      {"measurement": "VAS pain, change from baseline", "setting": "[2]; 100 mg bid, day 7, 100 mm VAS", "value": "−19.2 (21.6)* mm"},
      {"measurement": "VAS pain, change from baseline", "setting": "[2]; 100 mg bid, day 14, 100 mm VAS", "value": "−21.2 (22.6)* mm"},
      {"measurement": "VAS pain, change from baseline", "setting": "[2]; 100 mg bid, day 28, 100 mm VAS", "value": "−26.3", "unit": "mm"},
      {"measurement": "VAS pain, change from baseline", "setting": "[2]; 200 mg bid, day 7, 100 mm VAS", "value": "−22.0 (20.8)* mm"},
      {"measurement": "VAS pain, change from baseline", "setting": "[2]; 200 mg bid, day 14, 100 mm VAS", "value": "−24.1 (22.8)* mm"},
      {"measurement": "VAS pain, change from baseline", "setting": "[2]; 200 mg bid, day 28, 100 mm VAS", "value": "−29.6", "unit": "mm"},
      {"measurement": "Pain relief of 400 mg once daily compared with 200 mg twice daily", "setting": "[2]; 400 mg once daily", "value": "the same or better pain relief as 200 mg twice daily"},
      {"measurement": "Mean VAS scores compared with the other dose groups", "setting": "[2]; 400 mg once daily, day 28, throughout the measurement period", "value": "best mean scores"},
      {"measurement": "VAS pain, change from baseline", "setting": "[2]; 400 mg qd, day 7, 100 mm VAS", "value": "−26.0 (22.4)*a, b mm"},
      {"measurement": "VAS pain, change from baseline", "setting": "[2]; 400 mg qd, day 14, 100 mm VAS", "value": "−27.5 (23.8)* mm"},
      {"measurement": "VAS pain, change from baseline", "setting": "[2]; 400 mg qd, day 28, 100 mm VAS", "value": "−33.2", "unit": "mm"},
      {"measurement": "Duration of effective anti-inflammatory treatment after a single oral dose", "setting": "[2]; about 200 to about 1200 mg per day, immediate-release formulation, humans", "value": 24, "unit": "h"}
    ]},
    {"smiles": "O=C(O)Cc1ccccc1Nc1c(Cl)cccc1Cl", "note": "[diclofenac, reference compound]", "values": [
      {"measurement": "VAS pain, change from baseline", "setting": "[2]; 75 mg twice a day, extended release tablet, day 7, 100 mm VAS", "value": "−27.9", "unit": "mm"},
      {"measurement": "VAS pain, change from baseline", "setting": "[2]; 75 mg twice a day, extended release tablet, day 14, 100 mm VAS", "value": "−30.4 (23.0)* mm"},
      {"measurement": "VAS pain, change from baseline", "setting": "[2]; 75 mg twice a day, extended release tablet, day 28, 100 mm VAS", "value": "−31.8", "unit": "mm"}
    ]}
  ]
}
